# Test system: OSR1-GFP & SIX2-tdTomato reporter human iPS cell line (4A6C3-10)
# Test: SIX2-positive cell induction method 4, OSR1+SIX2+ cell rate by flow cytometer
# Type: cell-based
# Description: 4A6C3-10 was cultured at 37° C. in a 2% to 5% CO2 atmosphere to become 70% to 80% confluent on 10-cm dishes containing a primate ES medium (ReproCELL) supplemented with 500 U/ml penicillin/streptomycin (Invitrogen) and 5 ng/ml recombinant human basic fibroblast growth factor (bFGF, Wako) with the use of ICR-mouse-embryo (fetus 12.5 days old)-derived mouse embryonic fibroblasts (MEF) or SNL feeder cells (McMahon, A. P. and Bradley, A. (1990) Cell 62; 1073-1085) (these cells being previously treated with 15.5 μg/ml mitomycin (Kyowa Hakko Kirin Co., Ltd.) for 2 to 3 hours and seeded at a density of 2×10^5 cells/6-cm dish) as feeder cells. The 10-cm plates containing the cells were rinsed with PBS and treated with a CTK solution (PBS containing 0.25% Trypsin (Invitrogen), 0.1% Collagenase IV (Invitrogen), 20% KnockOut SR (KSR, Invitrogen), and 1 mM CaCl2) at 37° C. for 4 minutes. The CTK solution was removed by rinsing with PBS. Then, the medium was exchanged with DMEM/F12+Glutamax (Invitrogen) containing 0.1 mM MEM NEAA (Invitrogen), 1000 U/ml penicillin/streptomycin, 0.55 mM 2-mercaptoethanol (Invitrogen), and 20% KSR. Subsequently, the cells were scraped using a cell scraper and seeded on 6-cm plates coated with 0.2% gelatin to remove feeder cells. One hour later, the cells were washed with DMEM/F12+Glutamax [stage-1 medium] containing 500 U/ml penicillin/streptomycin and 2% FBS (HyClone), transferred to ultra-low attachment dishes (Corning 3471) having a stage-1 medium containing 100 ng/ml recombinant human/mouse/rat Activin A (R&D Systems) and 1 μM CHIR99021, and cultured at 37° C. in a 5% CO2 atmosphere for 2 days.
# In order to differentiate into the intermediate mesoderm, the cell mass (embryoid body (EB)) obtained at stage 1 was transferred to a 24-well plate coated with Synthemax II (Corning), the medium was exchanged with DMEM/F12+Glutamax containing 0.1 mM MEM NEAA, 500 U/ml penicillin/streptomycin, 0.55 mM 2-mercaptoethanol, 10% KSR, 100 ng/ml BMP7 (recombinant human BMP7, R&D Systems), and 1 μM CHIR99021, and the cells were cultured at 37° C. in a 5% CO2 atmosphere for 3 days.
# After stage 2, the medium was exchanged with DMEM/F12+Glutamax containing 0.1 mM MEM NEAA, 500 U/ml penicillin/streptomycin, 0.55 mM 2-mercaptoethanol, 10% KSR, 1 μM TTNPB (Sigma T3757), and 5 ng/ml TGFβ1 (Peprotech), followed by culturing at 37° C. in a 5% CO2 atmosphere for 5 days. The medium was exchanged with a medium having the same conditions two days after the start of culture (i.e., day 8 from the start of stage 1 (day 1)).
# After stage 3, the medium was exchanged with DMEM/F12+Glutamax containing 0.1 mM MEM NEAA, 500 U/ml penicillin/streptomycin, 0.55 mM 2-mercaptoethanol, 10% KSR, 5 ng/ml TGFβ1, and 0.5 μM DMH1 (Tocris), followed by culturing at 37° C. in a 5% CO2 atmosphere for 17 days (i.e., culturing for 28 days in total from the start of stage 1 (day 1); FIG. 3A). In this case, the medium was exchanged every 3 days with a medium having the same conditions. […] In addition, the OSR1^+SIX2^+ cell rate reached the maximum level on day 25 of culture and then it was confirmed to be maintained until day 28 of culture (FIG. 3D).
# Induction of OSR1^+SIX2^+ cells from the 4A6C3-10 iPS cell line was examined using different combinations of TGFβ signaling activators and BMP inhibitors. Specifically, induction of OSR1^+SIX2^+ cells from 4A6C3-10 was examined under conditions 1) to 10) described below. […]
substance,measurement,setting,value
TGFβ1: TGFβ signaling activator protein (Peprotech),induction of OSR1+SIX2+ cells,"Example 8, comparison of combinations of TGFβ signaling activators and BMP inhibitors at stage 4 (FIG. 4)",effective
same,OSR1-positive and SIX2-positive (OSR1+SIX2+) cell rate,"induction method 4, stage 4 medium with 5 ng/ml TGFβ1 and 0.5 μM DMH1, day 28 of culture",32.8%
